Key:
[1] = tested on: rat VPA model of autism; test: Open field behaviour (P31-32): locomotor activity, centre crossing, circling, self-grooming in VPA rat model; type: in vivo; set-up: key to open field (spontaneous LMA on day 1) / open field (habituation LMA on day 2) / centre crossing / centre time / Circling / Grooming: +: improvement; Ø: no change
Experimental: (§1) In the first study, a sub-chronic 8-day dosing schedule was employed with the test compound CBD administered alone (10, 30 and 60 mg/kg, p.o. VPA/CBD; dose volume 5 ml/kg). Control animals were administered sterile saline (0.9% w/v, i.p.) in utero and the vehicle control (ethanol: Kolliphor HS-15:0.9% saline (1:1:18, v/v/v) p.o. VEH/VEH). The test compound and vehicle control were administered to the animals once daily for 7 days prior to, and once again on each day of behavioural assessment, 60 minutes prior to test which consisted of a battery of behavioural paradigms: P30 social play and bottle brush test, P31-32 open field exploratory behaviour. A reference positive control, the atypical antipsychotic risperidone (0.125 mg/kg, i.p., once per day for 8 days prior to and for duration of behavioural testing), was included in study one for comparison. Subsequent to behavioural analysis the effect of CBD on gastrointestinal permeability was evaluated four hours following oral administration of fluorescein isothiocyanate-labelled dextran measured in plasma on postnatal day 33. On postnatal day 34, 60 minutes post a final treatment with the test agents, animals were humanely euthanised and samples collected to evaluate inflammatory biomarkers, gastrointestinal function and histology. 5 In the second study, the sub-optimal dose of CBD (30 mg/kg, p.o.) was evaluated in combination with administration of THC at increasing concentration (0.75, 1.5 and 3 mg/kg, p.o. VPA/CBD+THC). Comparison was made to CBD administered alone at the sub-optimal and effective doses (30 and 60 mg/kg, p.o.) and to vehicle controls as per study one. Behavioural and gastrointestinal readouts were examined as per study one with terminal samples collected on the final day of the experiment.
Following eight days treatment with the test compound animals were scored for locomotor activity and exploratory behaviour in two 10-minute trials within an open field arena over two days, a protocol widely used at Berand and allows to distinguish between day 1 spontaneous locomotor activity and day 2 locomotor activity following habituation (pre-exposure to the arena on day 1). Each day the animals were placed into a […] black Perspex box with 30 cm side walls, under low light and monitored via remote video capture for spontaneous activity. Linked to Ethovision XT image analysis software these videos were analysed for total distance moved and number and duration of centre zone crossings as an indication of hyperactivity and anxiety-like behaviour. Manual scoring of the videos was conducted (blinded to treatment group) to determine frequency of circling behaviour (number of 360 degree turns) and duration of self-grooming (n=8).

[2] = tested on: rat VPA model of autism; test: Gastrointestinal permeability (P33), FITC-dextran in plasma, VPA rat model; type: in vivo; set-up: key to gastrointestinal permeability: +: improvement; Ø: no change
Experimental: as §1
This assay is an indirect measure of total intestinal permeability. Animals are given an oral gavage of a fluorescently labelled small molecule (FITC-dextran), and at a subsequent timepoint the difference in fluorescence pre- and post-gavage is measured in plasma (Thevaranjan et al., 2017). Prior to gavage, a 50 μl sample of blood was collected by tail vein puncture. Animals then received 500 μl of 80 mg/ml FITC dextran (4 kDa Merck Ireland) by oral gavage and four hours later a second tail vein blood sample was collected. Tail vein blood sampling is facilitated through use of local anaesthetic EMLA cream following sterilisation of the tail. Blood samples were treated with 15% v/v acid-citrate-dextrose solution as an anticoagulant (38 mM citric acid, 107 mM sodium citrate, 136 mM dextrose), then mixed thoroughly by inversion and centrifuged at 5,000 rpm for 10 minutes. The plasma supernatant was transferred to microfuge tubes stored protected from light at 4° C. Each pre- and post-test plasma sample was diluted 1:5 in 1×PBS and a 100 μl aliquot was transferred to a 96-well plate. Readings of relative fluorescence units by a spectrophotometer were measured in duplicate and averaged. Fluorescence was determined at 530 nm with excitation at 485 nm. Permeability was expressed as relative fluorescence units between the groups being compared, determined by subtracting the PBS blank fluorescence from all samples and then subtracting the post-gavage fluorescence from the pre-gavage fluorescence. Treatment groups were prepared and analysed according to a blocked design to prevent bias.

[3] = cohort two, CBD 30 mg/kg, THC 0 mg/kg p.o.
[4] = cohort two, CBD 60 mg/kg, THC 0 mg/kg p.o.
[5] = study one, CBD 60 mg/kg, vs VPA/VEH
[6] = cohort one, risperidone 0.125 mg/kg i.p.
[7] = study one, risperidone 0.125 mg/kg i.p.

In the case of `C=C(C)[C@@H]1CCC(C)=C[C@H]1c1c(O)cc(CCCCC)cc1O` [CBD, cannabidiol], the Circling ([1]; cohort one, CBD 10 mg/kg p.o.) was “Ø”, the Grooming ([1]; cohort one, CBD 10 mg/kg p.o.) was “Ø” and the centre crossing ([1]; cohort one, CBD 10 mg/kg p.o.) was “Ø”. For the same molecule, the centre time ([1]; cohort one, CBD 10 mg/kg p.o.) was “Ø”, the “open field (habituation LMA on day 2)” value ([1]; cohort one, CBD 10 mg/kg p.o.) was “Ø” and the “open field (spontaneous LMA on day 1)” value ([1]; cohort one, CBD 10 mg/kg p.o.) was “Ø”. The Circling ([1]; cohort one, CBD 30 mg/kg p.o.) was “Ø”, the Grooming ([1]; cohort one, CBD 30 mg/kg p.o.) was “Ø” and the centre crossing ([1]; cohort one, CBD 30 mg/kg p.o.) was “Ø”. The centre time ([1]; cohort one, CBD 30 mg/kg p.o.) was “Ø”, the “open field (habituation LMA on day 2)” value ([1]; cohort one, CBD 30 mg/kg p.o.) was “Ø” and the “open field (spontaneous LMA on day 1)” value ([1]; cohort one, CBD 30 mg/kg p.o.) was “Ø”. The Circling ([1]; cohort one, CBD 60 mg/kg p.o.) was “+”, the Grooming ([1]; cohort one, CBD 60 mg/kg p.o.) was “+” and the centre crossing ([1]; cohort one, CBD 60 mg/kg p.o.) was “Ø”. For the same molecule, the centre time ([1]; cohort one, CBD 60 mg/kg p.o.) was “Ø”, the “open field (habituation LMA on day 2)” value ([1]; cohort one, CBD 60 mg/kg p.o.) was “+” and the “open field (spontaneous LMA on day 1)” value ([1]; cohort one, CBD 60 mg/kg p.o.) was “+”. The Circling [1, 3] was “+”, the Grooming [1, 3] was “Ø” and the centre crossing [1, 3] was “Ø”. The centre time [1, 3] was “Ø”, the “open field (habituation LMA on day 2)” value [1, 3] was “Ø” and the “open field (spontaneous LMA on day 1)” value [1, 3] was “Ø”. For the same molecule, the Circling [1, 4] was “+”, the Grooming [1, 4] was “+” and the centre crossing [1, 4] was “+”. The centre time [1, 4] was “+”, the “open field (habituation LMA on day 2)” value [1, 4] was “+” and the “open field (spontaneous LMA on day 1)” value [1, 4] was “+”. The “increase in circling behaviour, day 2” value ([1]; study one, CBD 60 mg/kg) was “significantly attenuated”, the “increase in self grooming, day 2” value ([1]; study one, CBD 60 mg/kg) was “reversed” and the “increase in locomotor activity (distance travelled), day one” value (from here on “increase in locomotor activity … day one”) [1, 5] was “significantly prevented”. The “increase in locomotor activity (distance travelled), day two” value (“increase in locomotor activity … day two” for short) [1, 5] was “significantly prevented”, the “increase in circling and grooming behaviour, day one” value ([1]; study one, CBD (10, 30 and 60 mg/kg)) was “without effect” and the “increase in circling behaviour, day 2” value ([1]; study two, CBD 30 mg/kg) was “without effect”. For the same molecule, the “increase in circling, day one” value ([1]; study two, CBD 30 mg/kg) was “significantly prevented”, the “increase in locomotor activity … day one” value ([1]; study two, CBD 30 mg/kg) was “without effect” and the “increase in locomotor activity … day two” value ([1]; study two, CBD 30 mg/kg) was “without effect”. The “increase in self grooming, day 2” value ([1]; study two, CBD 30 mg/kg) was “without effect”, the “increase in circling behaviour, day 2” value ([1]; study two, CBD 60 mg/kg) was “significantly attenuated” and the “increase in circling, day one” value ([1]; study two, CBD 60 mg/kg) was “significantly prevented”. The “increase in locomotor activity … day one” value ([1]; study two, CBD 60 mg/kg) was “significantly prevented”, the “increase in locomotor activity … day two” value ([1]; study two, CBD 60 mg/kg) was “significantly prevented” and the “increase in self grooming, day 2” value ([1]; study two, CBD 60 mg/kg) was “reversed”. The gastrointestinal permeability ([2]; cohort one, CBD 10 mg/kg p.o.) was “Ø”, the gastrointestinal permeability ([2]; cohort one, CBD 30 mg/kg p.o.) was “+” and the gastrointestinal permeability ([2]; cohort one, CBD 60 mg/kg p.o.) was “+”. The gastrointestinal permeability [2, 3] was “Ø”, the gastrointestinal permeability [2, 4] was “+” and the “increase in FITC dextran fluorescence (gastrointestinal permeability)” value (“increase in FITC dextran fluorescence” for short) ([2]; study one, CBD 30 mg/kg, vs VPA/VEH) was “significantly prevented”. For the same molecule, the “increase in FITC dextran fluorescence” value [2, 5] was “significantly prevented”, the “increase in FITC dextran fluorescence” value ([2]; study two, CBD 30 mg/kg) was “without effect” and the “increase in FITC dextran fluorescence” value ([2]; study two, CBD 60 mg/kg) was “significantly prevented”.

In the case of `Cc1nc2n(c(=O)c1CCN1CCC(c3noc4cc(F)ccc34)CC1)CCCC2` [Risperidone, risperidone], the Circling [1, 6] was “Ø”, the Grooming [1, 6] was “Ø” and the centre crossing [1, 6] was “Ø”. The centre time [1, 6] was “Ø”, the “open field (habituation LMA on day 2)” value [1, 6] was “+” and the “open field (spontaneous LMA on day 1)” value [1, 6] was “+”. For the same molecule, the “circling and self-grooming, day one or two” value [1, 7] was “did not reach significance”, the “increased locomotor activity, day two” value [1, 7] was “significantly reduced” and the “locomotor hyperactivity, day one” value [1, 7] was “significantly reduced”. The gastrointestinal permeability [2, 6] was “Ø” and the “increase in FITC dextran fluorescence” value [2, 7] was “without effect”.
